# Laboratory results published in patent publication US20150011508A1, “COMPOUNDS AND COMPOSITIONS AS C-KIT KINASE INHIBITORS” (priority 2011, published 2015).
# pIC50: −log10 of the molar value.
# Biological target: T1, c-kit (Homo sapiens, UniProt P10721)
# T1 construct: human Mo7e cells which endogenously express c-kit; endogenous in cells; host or cells: human Mo7e cells (SCF-dependent promegakaryocytic leukemia line)
# Assay: Mo7e cell proliferation assay (SCF dependent proliferation)
# Type: cell-based
# Conditions: Table 2; human Mo7e cells stimulated with human recombinant SCF, 48 h, CellTiter Glo; 1% FBS (footnote)
# Method in brief: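 SCF-dependent proliferation of human Mo7e cells, which express c-kit endogenously, was measured after 48 h at 37° C by CellTiter Glo luminescence. IC50 was taken as the concentration giving a response halfway between the baseline and maximum responses.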
# T1 sequence (P10721 26-976): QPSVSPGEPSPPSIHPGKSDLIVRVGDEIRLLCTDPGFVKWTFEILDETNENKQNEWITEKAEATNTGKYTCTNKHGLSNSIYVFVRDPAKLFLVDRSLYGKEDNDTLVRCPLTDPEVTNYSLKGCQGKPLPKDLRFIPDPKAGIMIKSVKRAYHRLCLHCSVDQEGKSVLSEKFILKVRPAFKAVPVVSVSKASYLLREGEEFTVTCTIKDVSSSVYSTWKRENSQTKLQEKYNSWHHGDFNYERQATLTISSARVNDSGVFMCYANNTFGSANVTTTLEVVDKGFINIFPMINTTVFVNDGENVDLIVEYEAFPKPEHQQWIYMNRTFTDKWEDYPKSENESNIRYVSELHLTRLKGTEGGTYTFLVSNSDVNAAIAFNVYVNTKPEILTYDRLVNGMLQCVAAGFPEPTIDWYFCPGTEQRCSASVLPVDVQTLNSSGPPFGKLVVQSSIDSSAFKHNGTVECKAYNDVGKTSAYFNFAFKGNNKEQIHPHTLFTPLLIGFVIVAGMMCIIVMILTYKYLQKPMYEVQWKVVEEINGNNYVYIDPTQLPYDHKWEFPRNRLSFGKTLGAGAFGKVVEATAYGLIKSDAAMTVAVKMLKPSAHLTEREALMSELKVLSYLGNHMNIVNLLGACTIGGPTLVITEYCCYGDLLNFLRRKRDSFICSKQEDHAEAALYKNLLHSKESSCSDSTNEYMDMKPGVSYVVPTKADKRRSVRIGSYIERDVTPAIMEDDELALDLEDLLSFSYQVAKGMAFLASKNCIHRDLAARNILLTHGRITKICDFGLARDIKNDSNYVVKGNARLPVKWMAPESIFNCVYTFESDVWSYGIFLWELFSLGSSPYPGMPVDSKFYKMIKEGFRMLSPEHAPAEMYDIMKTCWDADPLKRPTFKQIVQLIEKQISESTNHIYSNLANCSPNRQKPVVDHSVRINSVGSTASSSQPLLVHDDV
row,Structure (SMILES),pIC50
1,COC(=O)N[C@H](C)c1nc(-c2ccc(C)c(NC(=O)c3cnc4ccccn34)c2)no1 [F137],6.71
2,Cc1ccc(-c2noc(CC(C)(C)O)n2)cc1NC(=O)c1cnc2ccccn12 [F138],6.63
3,COCCCc1nc(-c2ccc(F)c(NC(=O)c3cnc4ccccn34)c2)no1 [F139],6.40
4,CC(=O)N[C@@H](C)c1nc(-c2ccc(C)c(NC(=O)c3cnc4ccccn34)c2)no1 [F140],5.87
5,CC(=O)NCc1nc(-c2ccc(C)c(NC(=O)c3cnc4ccccn34)c2)no1 [F141],6.06
6,Cc1ccc(-c2noc(C[C@@H](C)NC(=O)OC(C)(C)C)n2)cc1NC(=O)c1cnc2ccccn12 [F142],6.53
7,Cc1ccc(-c2noc(C(C)(C)NC(=O)OC(C)(C)C)n2)cc1NC(=O)c1cnc2ccccn12 [F143],6.70
8,"Cc1ccc(-c2noc(CN(C)S(C)(=O)=O)n2)cc1NC(=O)c1cnc2ccccn12 [F144, N-(2-methyl-5-(5-((N-methylmethylsulfonamido)methyl)-1,2,4-oxadiazol-3-yl)phenyl)imidazo[1,2-a]pyridine-3-carboxamide]",6.81
9,CCNCc1nc(-c2ccc(C)c(NC(=O)c3cnc4ccccn34)c2)no1 [F145],6.66
10,Cc1ccc(-c2noc(CC(=O)O)n2)cc1NC(=O)c1cnc2ccccn12 [F146],6.42
11,Cc1ccc(-c2noc(C(C)(C)NS(C)(=O)=O)n2)cc1NC(=O)c1cnc2ccccn12 [F147],6.34
12,COC(=O)NC(C)(C)c1nc(-c2ccc(C)c(NC(=O)c3cnc4ccccn34)c2)no1 [F148],6.68
13,Cc1ccc(-c2noc(C[C@@H](C)NS(C)(=O)=O)n2)cc1NC(=O)c1cnc2ccccn12 [F149],6.66
14,COC(=O)N[C@H](C)Cc1nc(-c2ccc(C)c(NC(=O)c3cnc4ccccn34)c2)no1 [F150],6.71
15,COCCCN(Cc1nc(-c2ccc(C)c(NC(=O)c3cnc4ccccn34)c2)no1)C(=O)C(F)(F)F [F151],6.87
16,CC(C)(C)OC(=O)NCc1nc(-c2ccc(F)c(NC(=O)c3cnc4ccccn34)c2)no1 [F152],6.68
17,O=C(Nc1cc(-c2noc(CC(O)(C(F)(F)F)C(F)(F)F)n2)ccc1F)c1cnc2ccccn12 [F153],6.61
18,Cc1ccc(-c2noc(CNC(=O)CCC(F)(F)F)n2)cc1NC(=O)c1cnc2ccccn12 [F154],6.74
19,COCCOCc1nc(-c2cc(NC(=O)c3cnc4ccccn34)c(C)cc2F)no1 [F155],6.40
20,Cc1cc(F)c(-c2noc(CNC(=O)OC(C)(C)C)n2)cc1NC(=O)c1cnc2ccccn12 [F156],6.70
21,Cc1ccc(-c2noc(CNC(=O)OCCF)n2)cc1NC(=O)c1cnc2ccccn12 [F157],6.81

row,Structure (SMILES),pIC50
1,COC(=O)NCc1nc(-c2ccc(C)c(NC(=O)c3cnc4cc(C#N)ccn34)c2)no1 [F158],6.11
2,COC(=O)NCc1nc(-c2ccc(C)c(NC(=O)c3cnc4cc(F)ccn34)c2)no1 [F159],6.74
3,Cc1ccc(-c2noc(C(F)F)n2)cc1NC(=O)c1cnc2ccccn12 [F160],6.32
4,Cc1ccc(-c2noc(CF)n2)cc1NC(=O)c1cnc2ccccn12 [F161],6.76
5,Cc1ccc(-c2noc(C(O)C(F)(F)F)n2)cc1NC(=O)c1cnc2ccccn12 (stereo not shown) [F162],6.58
6,Cc1ccc(-c2noc(COCCO)n2)cc1NC(=O)c1cnc2ccccn12 [F163],6.72
7,Cc1ccc(-c2noc(CNC(=O)N(C)C)n2)cc1NC(=O)c1cnc2ccccn12 [F164],6.02
8,COCCOC(=O)NCc1nc(-c2ccc(C)c(NC(=O)c3cnc4ccccn34)c2)no1 [F165],6.29
9,Cc1ccc(-c2noc(CNC(=O)CCOCC(F)(F)F)n2)cc1NC(=O)c1cnc2ccccn12 [F166],6.67
10,"COC(=O)NCc1nc(-c2ccc(C)c(NC(=O)c3cnc4ccc(F)cn34)c2)no1 [F167, methyl (3-(3-(6-fluoroimidazo[1,2-a]pyridine-3-carboxamido)-4-methylphenyl)-1,2,4-oxadiazol-5-yl)methylcarbamate]",6.78
11,COC(=O)NCc1nc(-c2ccc(C)c(NC(=O)c3cnc4ccc(C#N)cn34)c2)no1 [F168],6.66
12,Cc1ccc(-c2noc(CCC(C)(C)O)n2)cc1NC(=O)c1cnc2cc(F)ccn12 [F169],6.85
13,COC(=O)NCc1nc(-c2ccc(C)c(NC(=O)c3cnc4cc(C(F)(F)F)ccn34)c2)no1 [F170],6.34
14,Cc1ccc(-c2noc(C(CC(F)(F)F)N(C)C)n2)cc1NC(=O)c1cnc2ccccn12 (stereo not shown) [F171],6.74
15,CC(=O)OCc1nc(-c2ccc(C)c(NC(=O)c3cnc4ccccn34)c2)no1 [F172],6.81
16,Cc1ccc(-c2noc(C(C)(C)O)n2)cc1NC(=O)c1cnc2ccccn12 [F173],6.55
17,Cc1ccc(Nc2noc(C(C)C)n2)cc1NC(=O)c1cnc2ccccn12 [F174],6.55
18,Cc1ccc(-c2noc(COCCOCC(F)(F)F)n2)cc1NC(=O)c1cnc2ccc(F)cn12 [F175],6.98
19,Cc1nc(-c2ccc(C)c(NC(=O)c3cnc4ccc(-c5csc(N6CCOCC6)n5)cn34)c2)no1 [F176],6.65
20,COC(=O)NCc1nc(-c2ccc(C)c(NC(=O)c3cnc4cc(CCC(C)=O)ccn34)c2)no1 [F177],6.62
21,COC(=O)NCc1nc(-c2ccc(C)c(NC(=O)c3cnc4cc(CCC(C)(C)O)ccn34)c2)no1 [F178],6.55

row,Structure (SMILES),pIC50
1,COCCOCc1nc(-c2ccc(C)c(NC(=O)c3cnc4ccc(F)cn34)c2)no1 [F179],6.86
2,CC(=O)CCc1ccc2ncc(C(=O)Nc3cc(-c4noc(C)n4)ccc3C)n2c1 [F180],6.45
3,Cc1nc(-c2ccc(C)c(NC(=O)c3cnc4ccc(CCC(C)(C)O)cn34)c2)no1 [F181],6.54
4,COCCOCc1nc(-c2ccc(F)c(NC(=O)c3cnc4ccc(-c5cnn(CC(C)(C)O)c5)cn34)c2)no1 [F182],6.48
5,CC(C)(O)CCc1nc(-c2ccc(F)c(NC(=O)c3cnc4ccc(-c5cnn(CC(C)(C)O)c5)cn34)c2)no1 [F183],6.40
6,Cc1ccc(-c2noc(CCC(C)(C)O)n2)cc1NC(=O)c1cnc2ccc(CCN3CCOCC3)cn12 [F184],6.80
7,Cc1nc(-c2ccc(C)c(NC(=O)c3cnc4ccc(C#N)cn34)c2)no1 [F185],6.29
8,Cc1nc(-c2ccc(C)c(NC(=O)c3cnc4ccc(CCN5CCOCC5C)cn34)c2)no1 (stereo not shown) [F186],6.38
9,Cc1nc(-c2ccc(C)c(NC(=O)c3cnc4cc(C#N)ccn34)c2)no1 [F187],6.66
10,COCCOCc1nc(-c2ccc(C)c(NC(=O)c3cnc4ccc(OC)cn34)c2)no1 [F188],6.99
11,Cc1ccc(-c2noc(C(C)C)n2)cc1NC(=O)c1cnc2ccccn12 [F189],6.91
12,COCCOCc1nc(-c2cc(NC(=O)c3cnc4ccccn34)c(C)cc2C)no1 [F190],6.92
13,Cc1ccc(-c2noc(CCC(C)(C)O)n2)cc1NC(=O)c1cnc2cc(N3CCOC3=O)ccn12 [F191],6.57
14,Cc1ccc(-c2noc(NCC(C)(C)O)n2)cc1NC(=O)c1cnc2cc(F)ccn12 [F192],6.50
15,Cc1ccc2ncc(C(=O)Nc3cc(-c4noc(NCC(C)(C)O)n4)ccc3C)n2c1 [F193],6.78
16,Cc1ccc(-c2noc(CCC(C)(C)O)n2)cc1NC(=O)c1cnc2ccc(N3CCOCC3)cn12 [F194],6.90
17,Cc1ccc(-c2noc(CCC(C)(C)O)n2)cc1NC(=O)c1cnc2ccc(COCC(F)(F)F)cn12 [F195],6.82
18,COCc1n[nH]c(-c2ccc3ncc(C(=O)Nc4cc(-c5noc(C)n5)ccc4C)n3c2)n1 [F196],6.38
19,COCCNc1nc(-c2ccc(C)c(NC(=O)c3cnc4cc(C)ccn34)c2)no1 [F197],6.96
20,Cc1ccc(-c2noc(C(C)O)n2)cc1NC(=O)c1cnc2ccccn12 (stereo not shown) [F198],6.59
21,Cc1ccc(-c2noc(C(F)C(F)(F)F)n2)cc1NC(=O)c1cnc2ccccn12 (stereo not shown) [F199],6.90

row,Structure (SMILES),pIC50
1,Cc1ccc(-c2noc(C(C)F)n2)cc1NC(=O)c1cnc2ccccn12 (stereo not shown) [F200],6.92
2,Cc1nc(-c2ccc(C)c(NC(=O)c3cnc4ccc(-c5cnccn5)cn34)c2)no1 [F201],6.90
3,Cc1nc(-c2ccc(C)c(NC(=O)c3cnc4ccc(-c5cnccc5C)cn34)c2)no1 [F202],6.87
4,Cc1nc(-c2ccc(C)c(NC(=O)c3cnc4ccc(C5CC5)cn34)c2)no1 [F203],6.84
5,COC(=O)NCc1nc(-c2ccc(C)c(NC(=O)c3cnc4ccc(C)cn34)c2)no1 [F204],6.80
6,CCC(C)(O)c1nc(-c2ccc(C)c(NC(=O)c3cnc4ccccn34)c2)no1 (stereo not shown) [F205],6.76
7,Cc1nc(-c2ccc(C)c(NC(=O)c3cnc4ccc(-c5cncnc5)cn34)c2)no1 [F206],6.71
8,Cc1cc(-c2ccc3ncc(C(=O)Nc4cc(-c5noc(C)n5)ccc4C)n3c2)n(C)n1 [F207],6.65
9,Cc1nc(-c2ccc(C)c(NC(=O)c3cnc4ccc(-c5ccnn5C)cn34)c2)no1 [F208],6.64
10,CCNC(=O)Cc1nc(-c2ccc(C)c(NC(=O)c3cnc4ccccn34)c2)no1 [F209],6.50
11,CCN(CC)C(=O)Cc1nc(-c2ccc(C)c(NC(=O)c3cnc4ccccn34)c2)no1 [F210],6.37
12,Cc1nc(-c2ccc(C)c(NC(=O)c3cnc4ccc(CCN5CCNCC5)cn34)c2)no1 [F211],6.24
13,Cc1nc(-c2ccc(C)c(NC(=O)c3cnc4ccc(CCN5CCOCC5)cn34)c2)no1 [F212],6.16
14,CC(=O)N[C@@H](C)c1nc(-c2ccc(C)c(NC(=O)c3cnc4ccccn34)c2)no1 [F213],6.10
15,COCc1n[nH]c(-c2ccc3ncc(C(=O)Nc4cc(-c5noc(CCC(C)(C)O)n5)ccc4C)n3c2)n1 [F214],6.09
16,COCCOCc1nc(-c2ccc(C)c(NC(=O)c3cnc4ccccn34)c2C)no1 [F215],6.05
17,COC(=O)NCc1nc(-c2ccc(C)c(NC(=O)c3cnc4ccc(CCC(=O)OC(C)(C)C)cn34)c2)no1 [F216],5.99
18,Cc1ccc(-c2noc(CN)n2)cc1NC(=O)c1cnc2ccccn12 [F217],5.99
19,Cc1ccc(-c2noc(C(C)(C)N)n2)cc1NC(=O)c1cnc2ccccn12 [F218],5.98
